Earlier results as cited in PubChem BioAssay AID1259410 (Chemical Carcinogenesis Research Information System (CCRIS), 2018).

Tested on: rodent tumor promotion studies, tumor incidence
Test: CCRIS tumor promotion studies
[1] = Carcinogen: 7,12-DIMETHYLBENZ[A]ANTHRACENE, 57-97-6, Doses [Carcinogen]: 100 UG IN 0.1 ML OF ACETONE ONCE, Doses [Promoter]: 0, 5 UG IN 0.1 ML OF ACETONE 2/WK FOR 30 WK BEGINNING 1 WK POST CARCINOGEN DOSE (STUDY DURATION: 31 WK), Route [Carcinogen]: DERMAL, Route [Promoter]: DERMAL, Species: MOUSE, Strain/Sex: CD-1/FEMALE

c1c[nH]cn1
outcome (Carcinogen: N-METHYL-N-NITROSOUREA, 684-93-5, Doses [Carcinogen]: 40 MG/KG ONCE, Doses [Promoter]: 1000 MG/KG OF HIGH (20%) FAT DIET BEGINNING 1 WK POST CARCINOGEN DOSE AND CONTINUING FOR DURATION OF STUDY (STUDY DURATI, Route [Carcinogen]: SUBCUTANEOUS, Route [Promoter]: ORAL, Species: RAT, Strain/Sex: SPRAGUE-DAWLEY/FEMALE): mammary gland: tumor

O=C(CO)[C@@H](O)[C@H](O)[C@H](O)CO
outcome (Carcinogen: N-NITROSOMORPHOLINE, 59-89-2, Doses [Carcinogen]: 100 MG/KG/WK IN DRINKING WATER FOR 7 WK, Doses [Promoter]: 0, 120 G/L IN DRINKING WATER AD LIBITUM BEGINNING 2 D AFTER LAST CARCINOGEN DOSE (STUDY DURATION: 501 D), Route [Carcinogen]: ORAL, Route [Promoter]: ORAL, Species: RAT, Strain/Sex: SPRAGUE-DAWLEY/MALE): liver: hepatocellular carcinoma

CCCCCCCCCc1ccc(O)cc1
outcome (Carcinogen: 2',3-dimethyl-4-aminobiphenyl, 13394-86-0, Doses [Carcinogen]: 50 mg/kg every other wk for 10 injections from 7 wks of age, study duration 64 wks, Doses [Promoter]: 0, 25, 250, 2000 ppm in diet from 3 wks of age for 3 wks, Route [Carcinogen]: Subcutaneous, Route [Promoter]: Oral, Species: Rat, Strain/Sex: F344/Male (15-20/Group)): prostate: adenocarcinoma, no effect

C=C1/C(=C\C=C2/CCC[C@]3(C)[C@@H]([C@H](C)CCCC(C)(C)O)CC[C@@H]23)C[C@@H](O)C[C@@H]1O
outcome (Carcinogen: 7,12-DIMETHYLBENZ[A]ANTHRACENE, 57-97-6, Doses [Carcinogen]: 50 NMOL IN 200 µL ACETONE 2/WK FOR 16 WK, Doses [Promoter]: 0, 0.25, 0.5 NMOL IN 200 µL ACETONE APPLIED 1 HR PRIOR TO CARCINOGEN DOSES 2/WK FOR 16 WK (STUDY DURATION: 16 WK), Doses [Promoter]: 0, 0.25, 0.5 NMOL IN 200 µL ACETONE APPLIED 1 HR PRIOR TO CARCINOGEN DOSES 2/WK FOR 16 WK (STUDY DURATION: 16 WK), Route [Carcinogen]: DERMAL, Route [Promoter]: DERMAL, Species: MOUSE, Strain/Sex: CD-1/FEMALE): skin: tumors
outcome (Carcinogen: 7,12-DIMETHYLBENZ[A]ANTHRACENE, 57-97-6, Doses [Carcinogen]: 50 NMOL IN 200 µL ACETONE 2/WK FOR 16 WK, Doses [Promoter]: 0, 0.25 NMOL IN 200 µL ACETONE APPLIED 1 HR PRIOR TO AND 24 HR POST CARCINOGEN DOSES 2/WK FOR 16 WK (STUDY DURATION: 16, Route [Carcinogen]: DERMAL, Route [Promoter]: DERMAL, Species: MOUSE, Strain/Sex: CD-1/FEMALE): skin: tumors
outcome (Carcinogen: 7,12-DIMETHYLBENZ[A]ANTHRACENE, 57-97-6, Doses [Carcinogen]: 50 NMOL IN 200 µL ACETONE 2/WK FOR 16 WK, Doses [Promoter]: 0, 0.5 NMOL IN 200 µL ACETONE APPLIED 24 HR POST CARCINOGEN DOSES 2/WK FOR 16 WK (STUDY DURATION: 16 WK), Route [Carcinogen]: DERMAL, Route [Promoter]: DERMAL, Species: MOUSE, Strain/Sex: CD-1/FEMALE): skin: tumors
outcome (Carcinogen: N-METHYL-N'-NITRO-N-NITROSOGUANADINE, 70-25-7, Doses [Carcinogen]: 150 MG/L IN DRINKING WATER, Doses [Promoter]: 0, 2.5, 5 MG/KG IN DIET FOR DURATION OF STUDY BEGINNING 4 WK POST CARCINOGEN TREATMENT (STUDY DURATION: 32 WK), Doses [Promoter]: 0, 2.5, 5 MG/KG IN DIET FOR DURATION OF STUDY BEGINNING 4 WK POST CARCINOGEN TREATMENT (STUDY DURATION: 32 WK), Route [Carcinogen]: ORAL, Route [Promoter]: ORAL, Species: RAT, Strain/Sex: WISTAR/MALE): glandular stomach: adenocarcinoma

Oc1ccc2c(c1)CCCC2
outcome (Carcinogen: 7,12-DIMETHYLBENZ(A)ANTHRACENE, Doses [Carcinogen]: TOP, Route [Carcinogen]: DERMAL, Route [Promoter]: DERMAL, Species: MOUSE, Strain/Sex: FEMALE): integumentary system (skin)

COC(=O)/C=C/C=C/CCCCCCCCCCCCCO
outcome (Carcinogen: 7,12-DIMETHYLBENZ(A)ANTHRACENE, Doses [Carcinogen]: TOP, Route [Carcinogen]: DERMAL, Route [Promoter]: DERMAL, Species: MOUSE, Strain/Sex: MALE,FEMALE): integumentary system (skin)

C/C=C(\C(=C/C)c1ccc(O)cc1)c1ccc(O)cc1
outcome (Carcinogen: IRRADIATION, Doses [Carcinogen]: 260 CGY GAMMA RAYS AT DAY 20 OF PREGNANCY, Doses [Promoter]: 0, 0.376 UG/D RELEASED FROM PELLET IMPLANTED AFTER NURSING DISCONTINUED, PELLET REPLACED EVERY 8 WK (STUDY DURATION: 1 Y, Route [Carcinogen]: DERMAL, Route [Promoter]: IMPLANT, Species: RAT, Strain/Sex: WISTAR/FEMALE): mammary gland: tumor

C=C1C(O)C2OC3(CCC(/C=C/C(C)C4CC(C)=CC5(OC(CC(C)(O)C(=O)O)CCC5O)O4)O3)CCC2OC1C(O)CC(C)C1OC2(CCC1C)OCCCC2C (stereo not given)
outcome [1]: skin: tumor

C=C(C)[C@@]12OC3(c4ccccc4)O[C@@H]1[C@@H]1[C@@H]4OC4(CO)[C@@H](O)[C@]4(O)C(=O)C(C)=C[C@H]4[C@@]1(O3)[C@H](C)[C@H]2OC(=O)/C=C/C=C/c1ccccc1 (stereo not given in full)
outcome (Carcinogen: 7,12-DIMETHYLBENZ[A]ANTHRACENE, 57-97-6, Doses [Carcinogen]: 10 NMOL APPLIED TO BACK ONCE, Doses [Promoter]: 9 NMOL 2/WK FOR 19 WK BEGINNING 1 WK POST CARCINOGEN DOSE (STUDY DURATION: 40 WK), Route [Carcinogen]: DERMAL, Route [Promoter]: DERMAL, Species: MOUSE, Strain/Sex: HRA/SKH/FEMALE): skin: papilloma

C=C1[C@@H](O)[C@@H]2O[C@]3(CC[C@H](/C=C/[C@@H](C)[C@@H]4CC(C)=C[C@@]5(O[C@H](C[C@@](C)(O)C(=O)O)CCC5O)O4)O3)CC[C@H]2O[C@@H]1[C@@H](O)C[C@H](C)[C@H]1O[C@@]2(CCCCO2)CC[C@H]1C (stereo not given in full)
outcome [1]: skin: tumor
outcome (Carcinogen: N-METHYL-N'-NITRO-N-NITROSOGUANIDINE, 70-25-7, Doses [Carcinogen]: 100 MG/L OF DEIONIZED WATER AS DRINKING WATER FOR 8 WK, Doses [Promoter]: 0.25 MG/L IN DRINKING WATER BEGINNING 1 WK POST CARCINOGEN TREATMENT AND CONTINUING FOR 46 WK THEN 0.5 MG/L FOR 17 WK (S, Route [Carcinogen]: ORAL, Route [Promoter]: ORAL, Species: RAT, Strain/Sex: SPRAGUE-DAWLEY/MALE): glandular stomach: neoplasms

Clc1ccc(C(c2ccc(Cl)cc2)C(Cl)(Cl)Cl)cc1
outcome (Carcinogen: 2-(ACETYLAMINO)FLUORINE, Doses [Carcinogen]: DIET, Doses [Promoter]: IN DIET, Route [Carcinogen]: ORAL, Route [Promoter]: ORAL, Species: RAT, Strain/Sex: MALE): liver
outcome (Carcinogen: N-METHYL-N'-NITRO-N-NITROSOGUANIDINE, 70-25-7, Doses [Carcinogen]: 50 PPM FOR 60 MIN, Doses [Promoter]: 0, 100 PPM IN DIET BEGINNING 14 WK POST CARCINOGEN DOSE (STUDY DURATION: 12 MO), Route [Carcinogen]: IMMERSION, Route [Promoter]: ORAL, Species: FISH, Strain/Sex: RAINBOW TROUT): liver: tumor
outcome (Carcinogen: N-NITROSODIETHYLAMINE, 55-18-5, Doses [Carcinogen]: 90 MG/KG BW ONCE, Doses [Promoter]: 0, 300 PPM IN DIET FOR 53 WK BEGINNING 2 WK POST CARCINOGEN DOSE (STUDY DURATION: 55 WK), Route [Carcinogen]: INTRAPERITONEAL, Route [Promoter]: ORAL, Species: MOUSE, Strain/Sex: D2B6F1/MALE): liver: hepatocellular adenoma, hepatocellular carcinoma
outcome (Doses [Carcinogen]: 0.5 PPM FOR 30 MIN, Doses [Promoter]: 0, 100 PPM IN DIET BEGINNING 14 WK POST CARCINOGEN DOSE (STUDY DURATION: 12 MO), Route [Carcinogen]: IMMERSION, Route [Promoter]: ORAL, Species: FISH, Strain/Sex: RAINBOW TROUT): liver: tumor
outcome (Doses [Carcinogen]: 50 UG 2/WK FOR WK 1-4 OF STUDY THEN 75 UG 2/WK FOR WK 5-8, Doses [Promoter]: 0, 7.5 MG 2/WK FOR 14 WK BEGINNING 1 WK POST CARCINOGEN TREATMENT (STUDY DURATION: 1 YR), Route [Carcinogen]: GAVAGE, Route [Promoter]: GAVAGE, Species: RAT, Strain/Sex: WISTAR/MALE): liver: carcinoma
outcome (Doses [Carcinogen]: 50 UG 2/WK FOR WK 1-4 OF STUDY THEN 75 UG 2/WK FOR WK 5-8, Doses [Promoter]: 0, 7.5 MG 2/WK FOR 14 WK BEGINNING 3 WK POST CARCINOGEN TREATMENT (STUDY DURATION: 1 YR), Route [Carcinogen]: GAVAGE, Route [Promoter]: GAVAGE, Species: RAT, Strain/Sex: WISTAR/MALE): liver: carcinoma
